Values quoted from earlier work as cited in US20110146671A1, “PHARMACEUTICAL COMPOSITIONS AND METHODS OF DELIVERING THE SAME” (priority 2006, published 2011).
Structures can show the parent of a compound that is named as a salt.

Test system: patients with perennial allergic rhinitis
Conditions: 1% solution in normal saline, nasal wash every 48 hours for 4 weeks, versus placebo wash (normal saline only)

In the case of `CN[C@@H](C)[C@H](O)c1ccccc1` [ephedrine hydrochloride], the “peak nasal inspiratory flow rates” value is given as “significant improvement” and the symptom scores is given as “significant improvement”.
